IC50 data for 18 compounds are collected here from patent US12162888B2, “Carboxamides as ubiquitin-specific protease inhibitors” (Valo Early Discovery, Inc., priority 2018, dated 2024).

Read-outs that look alike come from different tables or passages of the source.

In the test the target is T1, USP25 (USP25-His6, Boston Biochem E-546) (Homo sapiens, UniProt Q9UHP3).
T1 construct: His6 (C); purchased Boston Biochem E-546
T1 sequence (Q9UHP3 1-1055): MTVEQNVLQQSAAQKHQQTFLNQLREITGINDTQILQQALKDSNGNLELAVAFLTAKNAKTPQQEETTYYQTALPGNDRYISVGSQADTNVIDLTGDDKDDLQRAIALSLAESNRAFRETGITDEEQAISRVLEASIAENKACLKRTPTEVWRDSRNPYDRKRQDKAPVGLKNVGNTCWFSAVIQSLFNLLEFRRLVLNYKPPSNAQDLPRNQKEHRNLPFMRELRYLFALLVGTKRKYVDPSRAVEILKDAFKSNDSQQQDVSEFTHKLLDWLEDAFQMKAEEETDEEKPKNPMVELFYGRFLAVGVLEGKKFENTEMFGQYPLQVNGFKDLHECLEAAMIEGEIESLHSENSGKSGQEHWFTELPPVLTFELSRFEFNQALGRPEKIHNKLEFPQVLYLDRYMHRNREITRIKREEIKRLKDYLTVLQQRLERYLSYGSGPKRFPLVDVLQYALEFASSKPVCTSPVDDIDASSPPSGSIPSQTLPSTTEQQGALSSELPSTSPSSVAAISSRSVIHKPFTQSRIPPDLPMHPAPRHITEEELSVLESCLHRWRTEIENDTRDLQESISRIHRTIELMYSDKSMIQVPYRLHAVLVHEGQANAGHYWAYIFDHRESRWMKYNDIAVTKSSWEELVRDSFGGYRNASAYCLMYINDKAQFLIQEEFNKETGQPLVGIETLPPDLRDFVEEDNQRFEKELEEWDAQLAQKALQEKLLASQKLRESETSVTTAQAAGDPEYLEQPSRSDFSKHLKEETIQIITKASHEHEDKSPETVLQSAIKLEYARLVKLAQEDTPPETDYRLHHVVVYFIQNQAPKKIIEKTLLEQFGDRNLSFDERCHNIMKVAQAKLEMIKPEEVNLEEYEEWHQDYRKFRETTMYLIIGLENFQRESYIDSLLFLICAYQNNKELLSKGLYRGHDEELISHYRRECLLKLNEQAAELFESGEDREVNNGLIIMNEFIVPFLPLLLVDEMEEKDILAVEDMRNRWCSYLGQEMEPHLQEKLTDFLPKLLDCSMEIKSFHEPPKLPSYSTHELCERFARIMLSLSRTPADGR
Briefly: Ubiquitin-Rhodamine 110 Assay for USP25 Activity, Example A-3. It is filed as biochemical. The settings on record: Ubiquitin-Rhodamine 110 assay, Example A-3. The protocol: Example A-3: Biochemical Assay: Ubiquitin-Rhodamine 110 Assay for USP25 Activity
The assay was performed in a final volume of 9 μL in assay buffer containing 20 mM Tris-HCl (pH 8.0, (1M Tris-HCl, pH 8.0 solution; Corning 46-031-CM)), 3 mM BME (2-Mercaptoethanol; Sigma 63689-25ML-F), 0.03% BGG (0.22 μM filtered, Sigma, G7516-25G), and 0.01% Triton X-100 (Sigma, T9284-10L). Nanoliter quantities of 10-point, 3-fold serial dilution in DMSO was pre-dispensed into 1536 assay plates (Corning, #3724BC) for a final test concentration of 25 μM to 1.3 nM, top to lowest dose, respectively. Enzyme USP25, construct USP25-His6, (Boston Biochem E-546). Concentration and incubation times were optimized for the maximal signal-to-background while maintaining initial velocity conditions at a fixed substrate concentration. The final concentration of the enzyme in the assay was […]. Final substrate (Ub-Rh110; Ubiquitin-Rhodamine 110, R&D Systems #U-555) concentration was 25 nM with [Ub-Rh110]<<Km. 3 μL of 2× enzyme was added to assay plates (pre-stamped with compound) preincubated with […] for 30 minutes and then 3 μL of 2× Ub-Rh110 was added to assay plates. Plates were incubated for 45 minutes at room temperature before addition of 3 μL of stop solution (final concentration of 10 mM citric acid (Sigma, 251275-500G)). Fluorescence was read on the Envision (Excitation at 485 nm and Emission at 535 nm; Perkin Elmer) or on the PheraSTAR (Excitation at 485 nm and Emission at 535 nm; BMG Labtech).
For assay formats Example A-1(a), A-1(b), and A-2, data were reported as percent inhibition compared with control wells based on the following equation: % inh=1−((FLU−AveLow)/(AveHigh−AveLow)) where FLU=measured Fluorescence, AveLow=average Fluorescence of no enzyme control (n=16), and AveHighh=average Fluorescence of DMSO control (n=16). IC50 values were determined by curve fitting of the standard 4 parameter logistic fitting algorithm included in the Activity Base software package: IDBS XE Designer Model 205. Data is fitted using the Levenburg Marquardt algorithm.

Regarding `CCn1ccc2cc(C(=O)N[C@H]3CCc4nc(N5C[C@H](N)[C@@H](C(F)(F)F)C5)ccc4C3)cnc21` [Example 421, N-[(6S)-2-[(3R,4S)-3-amino-4-(trifluoromethyl)pyrrolidin-1-yl]-5,6,7,8-tetrahydroquinolin-6-yl]-1-ethyl-1H-pyrrolo[2,3-b]pyridine-5-carboxamide], the concentration for half-maximal inhibition (IC50) (read-out: USP25 A-3 IC50 range) lay within 0.2 to 2 µM. On the same count and under the same terms, with `COC[C@H]1[C@H](N)CCN1c1ccc2c(n1)CC[C@H](NC(=O)c1sc3nc(C)ccc3c1N)C2` [Example 419, 3-amino-N-[(6S)-2-[(2R,3R)-3-amino-2-(methoxymethyl)pyrrolidin-1-yl]-5,6,7,8-tetrahydroquinolin-6-yl]-6-methylthieno[2,3-b]pyridine-2-carboxamide] the figure was above 2 µM.

Regarding `Cc1ccc2c(N)c(C(=O)N[C@H]3CCc4nc(N5CC[C@](N)(CO)C5)ccc4C3)sc2n1` [Example 386, 3-amino-N-[(6S)-2-[(3R)-3-amino-3-(hydroxymethyl)pyrrolidin-1-yl]-5,6,7,8-tetrahydroquinolin-6-yl]-6-methylthieno[2,3-b]pyridine-2-carboxamide], the IC50 (read-out: USP25 A-3 IC50 range) is 0.2 to 2 µM. The same measure, in the same setting: with `CCn1ccc2cc(C(=O)N[C@H]3CCc4nc(N5C[C@H](NC)[C@@H](OC)C5)ccc4C3)cnc21` [Example 402, 1-ethyl-N-[(6S)-2-[(3S,4S)-3-methoxy-4-(methylamino)pyrrolidin-1-yl]-5,6,7,8-tetrahydroquinolin-6-yl]-1H-pyrrolo[2,3-b]pyridine-5-carboxamide] the figure was above 2 µM.

Regarding `Cc1cc(C)c2c(N)c(C(=O)N[C@H]3COc4cc(N5CC6CCC(C5)N6)c(C#N)c(F)c4C3)sc2n1` [Example 241, 3-amino-N-[(3R)-6-cyano-7-{3,8-diazabicyclo[3.2.1]octan-3-yl}-5-fluoro-3,4-dihydro-2H-1-benzopyran-3-yl]-4,6-dimethylthieno[2,3-b]pyridine-2-carboxamide], the half-inhibitory concentration (IC50) (IC50 ranges, read-out: USP25 A-3 IC50) lay within 0.05 to 0.2 µM. `COC[C@@H]1[C@@H](N)CCN1c1ccc2c(n1)CC[C@H](NC(=O)c1sc3nc(C)ccc3c1N)C2` [Example 420, 3-amino-N-[(6S)-2-[(2S,3S)-3-amino-2-(methoxymethyl)pyrrolidin-1-yl]-5,6,7,8-tetrahydroquinolin-6-yl]-6-methylthieno[2,3-b]pyridine-2-carboxamide]: the IC50 (read-out: USP25 A-3 IC50 range) was 0.05 to 0.2 µM.

On to `Cc1ccc2c(N)c(C(=O)N[C@H]3CCc4nc(N5C[C@@H]6CCN[C@H](C5)C6(F)F)ccc4C3)sc2n1` [Example 367, 3-amino-N-[(6S)-2-[(1R,5S)-9,9-difluoro-2,7-diazabicyclo[3.3.1]nonan-7-yl]-5,6,7,8-tetrahydroquinolin-6-yl]-6-methylthieno[2,3-b]pyridine-2-carboxamide], for which, under “read-out: USP25 A-3 IC50 range”, the IC50 lay within 0.05 to 0.2 µM. On to `Cc1ccc2c(N)c(C(=O)N[C@H]3CCc4nc(N5CC6(C[C@H](N)CO6)C5)ccc4C3)sc2n1` [Example 399, 3-amino-N-[(6S)-2-[(7S)-7-amino-5-oxa-2-azaspiro[3.4]octan-2-yl]-5,6,7,8-tetrahydroquinolin-6-yl]-6-methylthieno[2,3-b]pyridine-2-carboxamide], for which, where the note is “read-out: USP25 A-3 IC50 range”, the IC50 is 0.2 to 2 µM. As for `CCn1ccc2cc(C(=O)N[C@H]3CCc4nc(N5C[C@@H](N)C6(COC6)C5)ccc4C3)cnc21` [Example 404, N-[(6S)-2-[(8S)-8-amino-2-oxa-6-azaspiro[3.4]octan-6-yl]-5,6,7,8-tetrahydroquinolin-6-yl]-1-ethyl-1H-pyrrolo[2,3-b]pyridine-5-carboxamide], the concentration for half-maximal inhibition (IC50) (read-out: USP25 A-3 IC50 range) was above 2 µM.

`Cc1ccc2c(N)c(C(=O)N[C@H]3CCc4nc(N5C[C@@H](N)[C@H](C(F)(F)F)C5)ccc4C3)sc2n1` [Example 364, 3-amino-N-[(6S)-2-[(3S,4R)-3-amino-4-(trifluoromethyl)pyrrolidin-1-yl]-5,6,7,8-tetrahydroquinolin-6-yl]-6-methylthieno[2,3-b]pyridine-2-carboxamide]: for the setting “read-out: USP25 A-3 IC50 range”, the IC50 was above 2 µM.

As to `Cc1ccc2c(N)c(C(=O)N[C@H]3CCc4nc(N5C[C@@H]6COC[C@]6(N)C5)ccc4C3)sc2n1` [Example 394, N-[(6S)-2-[(3aR,6aS)-3a-amino-hexahydro-1H-furo[3,4-c]pyrrol-5-yl]-5,6,7,8-tetrahydroquinolin-6-yl]-3-amino-6-methylthieno[2,3-b]pyridine-2-carboxamide], where the note is “read-out: USP25 A-3 IC50 range”, the IC50 was above 2 µM. Same read-out and setting: then `COC[C@@H]1CN(c2ccc3c(n2)OC[C@H](NC(=O)c2sc4nc(C)cc(C)c4c2N)C3)C[C@@H]1N` [Example 348, 3-amino-N-[(3R)-7-[(3R,4R)-3-amino-4-(methoxymethyl)pyrrolidin-1-yl]-2H,3H,4H-pyrano[2,3-b]pyridin-3-yl]-4,6-dimethylthieno[2,3-b]pyridine-2-carboxamide], with above 2 µM; and `Cc1ccc2c(N)c(C(=O)N[C@H]3CCc4nc(N5CC[C@@]6(C5)OCC[C@H]6N)ccc4C3)sc2n1` [Example 405, 3-amino-N-[(6S)-2-[(4R,5S)-4-amino-1-oxa-7-azaspiro[4.4]nonan-7-yl]-5,6,7,8-tetrahydroquinolin-6-yl]-6-methylthieno[2,3-b]pyridine-2-carboxamide], with 0.2 to 2 µM; and `CC(=O)N[C@@H]1CN(c2ccc3c(n2)CC[C@H](NC(=O)c2sc4nc(C)ccc4c2N)C3)C[C@H]1C(F)F` [Example 372, 3-amino-N-[(6S)-2-[(3R,4S)-3-(difluoromethyl)-4-acetamidopyrrolidin-1-yl]-5,6,7,8-tetrahydroquinolin-6-yl]-6-methylthieno[2,3-b]pyridine-2-carboxamide], with above 2 µM.

In the case of `Cc1ccc2c(N)c(C(=O)N[C@H]3CCc4nc(N5C[C@@H](CF)[C@H](N)C5)ccc4C3)sc2n1` [Example 385, 3-amino-N-[(6S)-2-[(3S,4R)-3-amino-4-(fluoromethyl)pyrrolidin-1-yl]-5,6,7,8-tetrahydroquinolin-6-yl]-6-methylthieno[2,3-b]pyridine-2-carboxamide], the half-inhibitory concentration (IC50) (read-out: USP25 A-3 IC50 range) was above 2 µM. With `CCn1ccc2cc(C(=O)N[C@H]3CCc4nc(N5C[C@@H](N)[C@H](C(F)(F)F)C5)ccc4C3)cnc21` [Example 422, N-[(6S)-2-[(3S,4R)-3-amino-4-(trifluoromethyl)pyrrolidin-1-yl]-5,6,7,8-tetrahydroquinolin-6-yl]-1-ethyl-1H-pyrrolo[2,3-b]pyridine-5-carboxamide], the IC50 (read-out: USP25 A-3 IC50 range) is above 2 µM. Still for that read-out and setting: then `COC[C@]1(N)CCN(c2ccc3c(n2)CC[C@H](NC(=O)c2sc4nc(C)ccc4c2N)C3)C1` [Example 389, 3-amino-N-[(6S)-2-[(3S)-3-amino-3-(methoxymethyl)pyrrolidin-1-yl]-5,6,7,8-tetrahydroquinolin-6-yl]-6-methylthieno[2,3-b]pyridine-2-carboxamide], with 0.2 to 2 µM; and `CN[C@@H]1CN(c2ccc3c(n2)CC[C@H](NC(=O)c2sc4nc(C)ccc4c2N)C3)C[C@H]1C(F)F` [Example 377, 3-amino-N-[(6S)-2-[(3R,4S)-3-(difluoromethyl)-4-(methylamino)pyrrolidin-1-yl]-5,6,7,8-tetrahydroquinolin-6-yl]-6-methylthieno[2,3-b]pyridine-2-carboxamide], with above 2 µM.

As usually defined, the IC50 is the concentration that gives 50% inhibition.
